By IC50 is commonly meant the concentration needed to halve the response being measured.

For one test, the target named is Recombinant human Cbl-b (aa 36-427) (Homo sapiens, UniProt Q13191). In words: Cbl-b Biochemical Assay (TR-FRET). As to conditions: read-out: TR-FRET hCbl-b IC50. (In general: Time-resolved FRET reads energy transfer from a long-lived donor to a nearby acceptor.)
Recombinant human Cbl-b (aa 36-427), sequence (Q13191 36-427): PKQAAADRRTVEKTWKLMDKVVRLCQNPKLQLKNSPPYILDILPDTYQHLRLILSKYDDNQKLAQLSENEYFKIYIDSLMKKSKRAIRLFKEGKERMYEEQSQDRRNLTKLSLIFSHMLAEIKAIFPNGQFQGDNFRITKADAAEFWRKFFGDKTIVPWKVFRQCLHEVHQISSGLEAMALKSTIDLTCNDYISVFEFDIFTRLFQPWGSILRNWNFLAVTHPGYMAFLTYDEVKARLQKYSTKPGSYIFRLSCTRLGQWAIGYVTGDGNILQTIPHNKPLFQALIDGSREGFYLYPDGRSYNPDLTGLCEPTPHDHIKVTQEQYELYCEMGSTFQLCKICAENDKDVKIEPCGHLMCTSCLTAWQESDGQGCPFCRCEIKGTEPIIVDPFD
On to `CCNc1cc(-c2c(-c3nncn3C)cnn2C)cc(-c2nc3cccc(C(F)(F)F)c3s2)n1` [ACU-2, N-Ethyl-4-[2-methyl-4-(4-methyl-1,2,4-triazol-3-yl)-pyrazol-3-yl]-6-[7-(trifluoromethyl)-1,3-benzothiazol-2-yl]-pyridin-2-amine], for which the IC50 lay within 10 to 50 µM. Consider `Cn1cnnc1CC1(c2cccc(-c3nc4cc(OCCN5CCCC5)cc(C(F)(F)F)c4[nH]3)c2)COC1` [ACJ-5, 2-(3-(3-((4-Methyl-4H-1,2,4-triazol-3-yl)methyl)oxetan-3-yl)phenyl)-5-(2-(pyrrolidin-1-yl)ethoxy)-7-(trifluoromethyl)-1H-benzo[d]imidazole], for which the IC50 was 10 to 50 µM. `COC(=O)c1[nH]c(=O)c(-c2cccc(-c3ccccc3-c3nncn3C)c2)cc1C(F)(F)F` [CH-2, Methyl 5-(2′-(4-methyl-4H-1,2,4-triazol-3-yl)-[1,1′-biphenyl]-3-yl)-6-oxo-3-(trifluoromethyl)-1,6-dihydropyridine-2-carboxylate]: the IC50 is 10 to 50 µM. Still for that read-out and setting: next, `CCNc1cc(-c2ccc(F)cc2-c2nncn2C)cc(-c2nc3cccc(C(F)(F)F)c3o2)n1` [AEJ-4, N-Ethyl-4-[4-fluoro-2-(4-methyl-1,2,4-triazol-3-yl)phenyl]-6-[7-(trifluoromethyl)-1,3-benzoxazol-2-yl]pyridin-2-amine]: 0.2 to 1 µM; `Cn1cnnc1CC1(c2cccc(-c3nc4cc(C(=O)N5CC[C@@H](O)C5)cc(C(F)(F)F)c4[nH]3)c2)COC1` [ABS-2, (R)-(3-Hydroxypyrrolidin-1-yl)(2-(3-(3-((4-methyl-4H-1,2,4-triazol-3-yl)methyl)oxetan-3-yl)phenyl)-7-(trifluoromethyl)-1H-benzo[d]imidazol-5-yl)methanone]: 10 to 50 µM; `CCNc1cc(-c2c(-c3nncn3C)cnn2C)cc(-c2nc3cccc(C(F)(F)F)c3o2)n1` [ACW-2, N-Ethyl-4-(1-methyl-4-(4-methyl-4H-1,2,4-triazol-3-yl)-1H-pyrazol-5-yl)-6-(7-(trifluoromethyl)benzo[d]oxazol-2-yl)pyridin-2-amine]: 10 to 50 µM. Take `Cn1cnnc1-c1ccccc1-c1cccc(-c2nc3ccc(F)c(C(F)(F)F)c3[nH]2)c1` [BC-1, 6-Fluoro-2-(2′-(4-methyl-4H-1,2,4-triazol-3-yl)-[1,1′-biphenyl]-3-yl)-7-(trifluoromethyl)-1H-benzo[d]imidazole]: the IC50 lay in the range of 10 to 50 µM. For `Cn1cnnc1-c1cnn(C)c1-c1cccc(-c2nc3cccc(C(F)(F)F)n3n2)c1` [ABN-2, 4-Methyl-3-(1-methyl-5-{3-[5-(trifluoromethyl)-[1,2,4]triazolo[1,5-a]pyridin-2-yl]phenyl}pyrazol-4-yl)-1,2,4-triazole], the IC50 is 10 to 50 µM. Same read-out and setting: next, `Cn1cnnc1-c1ccccc1-c1cccc(-c2nc3cc(C(=O)N4CCC5(CC5)C4)cc(C(F)(F)F)c3[nH]2)c1` [ACE-1, (2-(2′-(4-Methyl-4H-1,2,4-triazol-3-yl)-[1,1′-biphenyl]-3-yl)-7-(trifluoromethyl)-1H-benzo[d]imidazol-5-yl)(5-azaspiro[2.4]heptan-5-yl)methanone]: 10 to 50 µM; `Cn1cnnc1-c1ccccc1-c1cccc(-c2nc3cccc(C(F)(F)F)c3[nH]2)c1` [ABW-1, 2-(2′-(4-Methyl-4H-1,2,4-triazol-3-yl)-[1,1′-biphenyl]-3-yl)-7-(trifluoromethyl)-1H-benzo[d]imidazole]: 10 to 50 µM; `Cn1cnnc1CCc1cccc(-c2nc3cccc(C(F)(F)F)n3n2)c1` [ABI-7, 2-(3-(2-(4-Methyl-4H-1,2,4-triazol-3-yl)ethyl)phenyl)-5-(trifluoromethyl)-[1,2,4]triazolo[1,5-a]pyridine]: 10 to 50 µM. Take `Cn1cnnc1CC1(c2cccc(-c3nc4cccc(OC(F)(F)F)c4[nH]3)c2)COC1` [ABQ-2, 2-(3-(3-((4-Methyl-4H-1,2,4-triazol-3-yl)methyl)oxetan-3-yl)phenyl)-7-(trifluoromethoxy)-1H-benzo[d]imidazole]: the IC50 is 10 to 50 µM. With `Cn1cnnc1CC1(c2cccc(-c3nc4cccc(C5CC5)c4[nH]3)c2)COC1` [ABG-3, 7-Cyclopropyl-2-(3-(3-((4-methyl-4H-1,2,4-triazol-3-yl)methyl)oxetan-3-yl)phenyl)-1H-benzo[d]imidazole], the IC50 fell in the range of 10 to 50 µM. For `Cn1cnnc1-c1ccccc1-c1cccc(-c2cc(C(F)(F)F)cn(C)c2=O)c1` [CG-4, 1-Methyl-3-(2′-(4-methyl-4H-1,2,4-triazol-3-yl)-[1,1′-biphenyl]-3-yl)-5-(trifluoromethyl)pyridin-2(1H)-one], the IC50 lay in the range of 10 to 50 µM.

As to `Cn1cnnc1-c1cc(F)ccc1-c1cccc(-c2nc3ccccc3[nH]2)c1` [CA-2, 2-(4′-Fluoro-2′-(4-methyl-4H-1,2,4-triazol-3-yl)-[1,1′-biphenyl]-3-yl)-1H-benzo[d]imidazole], the IC50 fell in the range of 10 to 50 µM. For `Cn1cnnc1CC1(c2cccc(-c3nc4cc(Br)cc(C(F)(F)F)c4[nH]3)c2)COC1` [ABE-2, 5-Bromo-2-(3-(3-((4-methyl-4H-1,2,4-triazol-3-yl)methyl)oxetan-3-yl)phenyl)-7-(trifluoromethyl)-1H-benzo[d]imidazole], the IC50 was in the range of 10 to 50 µM. In the case of `Cn1cnnc1CC1(c2cccc(-c3cc(C(F)(F)F)cn(CCN4CC(O)C4)c3=O)c2)COC1` [ACH-5, 1-(2-(3-Hydroxyazetidin-1-yl)ethyl)-3-(3-(3-((4-methyl-4H-1,2,4-triazol-3-yl)methyl)oxetan-3-yl)phenyl)-5-(trifluoromethyl) pyridin-2(1H)-one], the IC50 was in the range of 10 to 50 µM. For the molecule `Cn1cnnc1-c1ccccc1-c1cccc(-c2nc3ccc(Br)c(C(F)(F)F)c3[nH]2)c1` [BB-1, 6-Bromo-2-(2′-(4-methyl-4H-1,2,4-triazol-3-yl)-[1,1′-biphenyl]-3-yl)-7-(trifluoromethyl)-1H-benzo[d]imidazole], the IC50 lay in the range of 10 to 50 µM. As to `CCNc1cc(-c2c(-c3nncn3C)cnn2C)cc(-c2nc3ccc(C)c(C(F)(F)F)c3[nH]2)n1` [ACV-5, N-Ethyl-4-(1-methyl-4-(4-methyl-4H-1,2,4-triazol-3-yl)-1H-pyrazol-5-yl)-6-(6-methyl-7-(trifluoromethyl)-1H-benzo[d]imidazol-2-yl) pyridin-2-amine], the IC50 was in the range of 10 to 50 µM. The same measure, in the same setting: to `Cn1cnnc1CC1(c2cccc(-c3nc4cc(C(=O)Nc5nccn5C)cc(C(F)(F)F)c4[nH]3)c2)COC1` [ABZ-2, N-(1-Methyl-1H-imidazol-2-yl)-2-(3-(3-((4-methyl-4H-1,2,4-triazol-3-yl)methyl)oxetan-3-yl)phenyl)-7-(trifluoromethyl)-1H-benzo[d]imidazole-5-carboxamide] belongs 10 to 50 µM. Regarding `Cn1cnnc1-c1ccccc1-c1cccc(-c2cc(C(F)(F)F)c(C(=O)O)[nH]c2=O)c1` [CH-3, 5-(2′-(4-methyl-4H-1,2,4-triazol-3-yl)-[1,1′-biphenyl]-3-yl)-6-oxo-3-(trifluoromethyl)-1,6-dihydropyridine-2-carboxylic Acid], the IC50 was in the range of 10 to 50 µM. With `CN1CCC(C(=O)Nc2ccc3nc(-c4cccc(-c5ccccc5-c5nncn5C)c4)[nH]c3c2C(F)(F)F)CC1` [BF-3, 1-Methyl-N-(2-(2′-(4-methyl-4H-1,2,4-triazol-3-yl)-[1,1′-biphenyl]-3-yl)-7-(trifluoromethyl)-1H-benzo[d]imidazol-6-yl)piperidine-4-carboxamide, Formic Acid], the IC50 was 10 to 50 µM. `Cn1cnnc1CC1(c2cccc(-c3nc4cccc(Br)c4[nH]3)c2)COC1` [ABP-2, 4-Bromo-2-(3-[3-[(4-methyl-1,2,4-triazol-3-yl)methyl]oxetan-3-yl]phenyl)-1H-1,3-benzodiazole]: the IC50 fell in the range of 10 to 50 µM. Take `CCNc1cc(-c2ccccc2-c2nncn2C)cc(-c2nc3cccc(C(F)(F)F)c3o2)n1` [AS-12, N-ethyl-4-(2-(4-methyl-4H-1,2,4-triazol-3-yl)phenyl)-6-(7-(trifluoromethyl)benzo[d]oxazol-2-yl)pyridin-2-amine]: the IC50 fell in the range of 10 to 50 µM. Regarding `Cn1cnnc1CC1(c2cccc(-c3cc4cccc(C(F)(F)F)c4[nH]3)c2)COC1` [ACP-4, 2-(3-(3-((4-Methyl-4H-1,2,4-triazol-3-yl)methyl)oxetan-3-yl)phenyl)-7-(trifluoromethyl)-1H-indole], the IC50 lay within 10 to 50 µM. As for `Cn1cnnc1CC1(c2cccc(-c3nc4cccc(Cl)c4[nH]3)c2)COC1` [ABM-2, 7-Chloro-2-(3-(3-((4-methyl-4H-1,2,4-triazol-3-yl)methyl)oxetan-3-yl)phenyl)-1H-benzo[d]imidazole], the IC50 is 10 to 50 µM.

In the case of `Cn1cnnc1CC1(c2cccc(-c3nc4c(C(F)(F)F)cccc4s3)c2)COC1` [ABF-4, 2-(3-[3-[(4-Methyl-1,2,4-triazol-3-yl)methyl]oxetan-3-yl]phenyl)-4-(trifluoromethyl)-1,3-benzothiazole], the IC50 was in the range of 10 to 50 µM. On the same count and under the same terms, next, `CCNc1cc(-c2c(-c3nncn3C)cnn2C)cc(-c2nc3ccc(Br)c(C(F)(F)F)c3[nH]2)n1` [ACT-3, 6-(6-Bromo-7-(trifluoromethyl)-1H-benzo[d]imidazol-2-yl)-N-ethyl-4-(1-methyl-4-(4-methyl-4H-1,2,4-triazol-3-yl)-1H-pyrazol-5-yl) pyridin-2-amine]: 10 to 50 µM.

A further test concerns the target T1, Recombinant human c-Cbl (aa 47-435) (Homo sapiens, UniProt P22681).
T1 sequence (P22681 47-435): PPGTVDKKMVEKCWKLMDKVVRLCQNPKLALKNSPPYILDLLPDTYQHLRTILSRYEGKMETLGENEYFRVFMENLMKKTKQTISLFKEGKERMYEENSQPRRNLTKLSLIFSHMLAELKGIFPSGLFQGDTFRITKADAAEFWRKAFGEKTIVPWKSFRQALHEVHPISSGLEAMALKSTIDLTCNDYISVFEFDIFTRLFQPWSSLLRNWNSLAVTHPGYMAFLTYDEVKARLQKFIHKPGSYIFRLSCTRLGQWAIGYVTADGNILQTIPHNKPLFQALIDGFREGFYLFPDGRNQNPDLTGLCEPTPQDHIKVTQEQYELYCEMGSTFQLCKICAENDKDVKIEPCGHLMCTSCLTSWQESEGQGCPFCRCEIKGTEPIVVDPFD
Nature of the test: c-Cbl Biochemical Assay (TR-FRET). As to conditions: hc-Cbl Biochemical Assay (TR-FRET); read-out: TR-FRET hcCbl IC50.
On to `CCNc1cc(-c2c(-c3nncn3C)cnn2C)cc(-c2nc3cccc(C(F)(F)F)c3s2)n1` [ACU-2, N-Ethyl-4-[2-methyl-4-(4-methyl-1,2,4-triazol-3-yl)-pyrazol-3-yl]-6-[7-(trifluoromethyl)-1,3-benzothiazol-2-yl]-pyridin-2-amine], for which the IC50 was 10 to 50 µM. Same read-out and setting: to `Cn1cnnc1CC1(c2cccc(-c3nc4cc(OCCN5CCCC5)cc(C(F)(F)F)c4[nH]3)c2)COC1` [ACJ-5, 2-(3-(3-((4-Methyl-4H-1,2,4-triazol-3-yl)methyl)oxetan-3-yl)phenyl)-5-(2-(pyrrolidin-1-yl)ethoxy)-7-(trifluoromethyl)-1H-benzo[d]imidazole] belongs 10 to 50 µM; to `COC(=O)c1[nH]c(=O)c(-c2cccc(-c3ccccc3-c3nncn3C)c2)cc1C(F)(F)F` [CH-2, Methyl 5-(2′-(4-methyl-4H-1,2,4-triazol-3-yl)-[1,1′-biphenyl]-3-yl)-6-oxo-3-(trifluoromethyl)-1,6-dihydropyridine-2-carboxylate], 10 to 50 µM; to `CCNc1cc(-c2ccc(F)cc2-c2nncn2C)cc(-c2nc3cccc(C(F)(F)F)c3o2)n1` [AEJ-4, N-Ethyl-4-[4-fluoro-2-(4-methyl-1,2,4-triazol-3-yl)phenyl]-6-[7-(trifluoromethyl)-1,3-benzoxazol-2-yl]pyridin-2-amine], 1 to 10 µM. On to `Cn1cnnc1CC1(c2cccc(-c3nc4cc(C(=O)N5CC[C@@H](O)C5)cc(C(F)(F)F)c4[nH]3)c2)COC1` [ABS-2, (R)-(3-Hydroxypyrrolidin-1-yl)(2-(3-(3-((4-methyl-4H-1,2,4-triazol-3-yl)methyl)oxetan-3-yl)phenyl)-7-(trifluoromethyl)-1H-benzo[d]imidazol-5-yl)methanone], for which the half-inhibitory concentration (IC50) fell in the range of 10 to 50 µM. With `N#CC1(CN)CCCC1` [AHN-1], the IC50 is less than 0.2 µM.

These data come from US20250163038A1, “CBL-B MODULATORS AND USES THEREOF” (Nimbus Clio, Inc., priority 2021, published 2025).
